Measured values: US7060673B2, “Fusion peptide of human parathyroid hormone derived peptide and tat peptide, preparation thereof, and skin slimming cosmetic composition comprising the same” (LG Household and Health Care Ltd., priority 2001, dated 2006)

Key:
[1] = tested on: 3T3-L1 cell differentiated into adipocyte; assay: Lipolysis effects test (glycerol secretion by differentiated adipocytes); settings: 24 hours, absorbency at 540 nm
[2] = tested on: healthy adult women with local obesity or cellulite inside of a thigh; settings: O/W emulsion coated on one leg for one month, control emulsion on the other leg; 5 women
Experimental: In order to examine slimming effects, clinical tests were conducted on 5 healthy adult women of ages 18˜46 with local obesity or cellulite inside of a thigh (Method of testing primary irritant substances 38(187): pp1500–1541).
The fusion peptide prepared in Example 1 was prepared in the form of an O/W emulsion and used in the test. A control (O/W emulsion without sample) was coated on one leg, and an O/W emulsion comprising the compound of Chemical Formula 1 of the present invention was coated on the other leg, for one month, and then the thickness of the lipid layer was quantified.

| Compound | Lipolysis increase rate (%) ([1]; concentration 10^−5 M) | Lipolysis increase rate (%) ([1]; concentration 10^−6 M) | Lipolysis increase rate (%) ([1]; concentration 10^−7 M) | Lipolysis increase rate (%) ([1]; concentration 10^−8 M) | Lipolysis increase rate (%) ([1]; concentration 10^−5 M, listed as compound represented by the Chemical Formula 1) | lipid layer decrease [2] |
| --- | --- | --- | --- | --- | --- | --- |
| CC(C)NCC(O)c1ccc(O)c(O)c1 (stereo not shown) [Isoproterenol, isoproterenol, reference compound] | 12.5% | 39.0% | 34.5% | 17.3% |  |  |
| KKKKKKKKKGKH | 43.4% | 10.3% | 17.4% | 8.6% | 43% | 18% |
